Patent US8242101B2, “Leukemia treatment method and composition” (University of South Florida, priority 2003, dated 2012)
Entries after “also recorded” stand apart in the source; their conditions may differ.

Legend:
[1] = test system: MV4-11 (MV) cells; assay: Cell cycle status and apoptosis of MV4-11 cells; assay type: cell-based, human
[2] = test system: Hsp-90; assay: Hsp-90 acetylation, ATP binding and chaperone activities; assay type: cell-based; conditions: earlier work of the inventors
[3] = test system: histone H3 and H4, p21; assay: Histone acetylation and p21 levels in AML cells; assay type: cell-based, human; conditions: LAQ824 10 to 100 nM
[4] = test system: FLT-3 and p-FLT-3 on MV cells; assay: Flow cytometry (FCM) assay of surface FLT-3 and p-FLT-3 on MV cells; assay type: cell-based, human; conditions: for surface expression of p-FLT-3: FCM
Description: (§1) Simultaneous measurement of surface FLT-3 kinase and Phospho (P Y591) FLT-3 kinase in Acute Leukemic cells using a flow cytometric assay.
(§2) Leukemic cells are harvested by spinning at 1000 rpm at 4 deg for 5 minutes. The cells are washed twice with cold PBS (1×). Equal numbers of cells are utilized for FLT-3 and p-FLT-3 analyses.
(§3) In the assay to detect surface FLT-3 expression, shown in FIG. 8, the cells 10 are incubated on ice for thirty minutes 20 in PBS (1×) 30 containing 3% FBS (blocking buffer) 40. Subsequently, the cells are washed twice with cold PBS (1×). Cells are then incubated with either 0.2 Tg of anti-FLT-3 antibody 50 (sc-19635, Santa Cruz Biotechnology, Calif.) or concentration-matched isotype, control antibody (IgG1, Caltag, Burlingame, Calif.) 60 diluted in the blocking buffer and kept on ice for one hour 70. Cells are then washed twice in PBS (1×) and incubated in FITC-conjugated secondary antibody (Molecular Probes, Eugene, Oreg.) 80 for additional thirty minutes on ice 90. The cells are then rinsed twice with PBS (1×) and resuspended in 400 TL PBS (1×) 100. The fluorescence is measured by FACScan Cytometer (San Jose, Calif.).
To determine the p-FLT-3 expression, leukemia cells are fixed and permeabilized. Referring now to the flowchart in FIG. 9, cells 10 are fixed in 1% formaldehyde 20 at 37 degrees for ten minutes 30, followed by incubation on ice for ten minutes. Cells are then spun down and permeabilized by resuspending them in ice cold 90% methanol 40 for thirty minutes. Following this, cells are washed twice in the blocking buffer (PBS (1×) containing 0.5% BSA) 50 and then incubated in the blocking buffer for an additional ten minutes at room temperature (RT) 60. Next, to the cells, either 0.4 Tg of monoclonal antibody to p-FLT-3 (Cell Signaling, Beverley, Mass.) 70 or isotype control antibody (IgG2b, Caltag, Burlingame, Calif.) 80 is added and cells are then incubated at RT for thirty minutes 90. […] After thirty minutes of incubation 110, cells are washed twice with PBS (1×) and resuspended in 400 TI of PBS (1×) 120 and analyzed by FACScan 130.

[5] = test system: FLT-3 and p-FLT-3 in RS cells; assay: FLT-3 and p-FLT-3 levels in RS cells by Western and FCM analyses; assay type: cell-based, human
Description: as §1, §2, §3
To determine the p-FLT-3 expression, leukemia cells are fixed and permeabilized. […] After thirty minutes of incubation 110, cells are washed twice with PBS (1×) and resuspended in 400 TI of PBS (1×) 120 and analyzed by FACScan 130.

[6] = test system: p-FLT-3, p-AKT and p-ERK1/2; assay: Western analyses of FLT-3, AKT, ERK1/2 and their phospho forms in MV cells; assay type: cell-based, human

| Compound | apoptosis ([1]; MV4-11 cells, single agent, FIG. 2 and FIG. 3) | acetylation of Hsp-90, its ATP binding and chaperone activities [2] | acetylation of histone H3 and H4 [3] | p21 levels [3] | surface expression of p-FLT-3 [4] | FLT-3 and p-FLT-3 levels ([4]; Western and FCM analyses) | FLT-3 and p-FLT-3 levels [5] | levels of p-FLT-3, p-AKT and p-ERK1/2 ([6]; LAQ824 20 to 100 nM) | FLT-3, P-AKT and P-ERK levels ([6]; MV4-11 cells, immunoblots, FIG. 3) | apoptosis, MV compared with RS cells ([1]; 20 to 200 nM PKC412, dose-dependent) | cell cycle G1 phase accumulation ([1]; exposure to 20 to 200 nM PKC412) | p-FLT-3, p-AKT and p-ERK1/2 levels ([6]; Western analyses, 20 to 200 nM PKC412) |
| --- | --- | --- | --- | --- | --- | --- | --- | --- | --- | --- | --- | --- |
| O=C(/C=C/c1ccc(CN(CCO)CCc2c[nH]c3ccccc23)cc1)NO [LAQ824] | induces apoptosis of MV4-11 cells; also recorded: inducing apoptosis of MV4-11 cells | induces acetylation of Hsp-90 and inhibition of its ATP binding and chaperone activities | induced the acetylation of histone H3 and H4 | increases p21; also recorded: increased p21 levels | attenuates cell surface p-FLY-3 expression | attenuated both FLT-3 and p-FLT-3 levels in a dose-dependent manner | attenuated both FLT-3 and p-FLT-3 levels in a dose-dependent manner | down regulated the levels of p-FLT-3, p-AKT and p-ERK1/2 | attenuates FLT-3, P-AKT, and P-ERK | – | – | – |
| CO[C@@H]1[C@H](N(C)C(=O)c2ccccc2)C[C@H]2O[C@]1(C)n1c3ccccc3c3c4c(c5c6ccccc6n2c5c31)C(=O)NC4 [PKC412] | – | – | – | – | inhibited the surface expression of p-FLT-3 | – | – | – | – | significantly more apoptosis of MV than RS cells | induced cell cycle G1 phase accumulation | marked attenuation of p-FLT-3, p-AKT and p-ERK1/2 |
